This note sets out measurements from patent publication US7585859B2, “PDE4B inhibitors and uses therefor” (Plexxikon, Inc., priority 2004, dated 2009).

Like-named read-outs stand apart in the source and are kept apart here.

Assay [1] addresses T1, PDE4B: The catalytic domain of human PDE4B from S152-S528 (Homo sapiens, UniProt Q07343).
T1 construct: His6 (N); thrombin cleavage site (N); made in house; host or cells: E. coli
The assay is described as follows: PDE4 IC50 determination by Scintillation Proximity Assay, PDE4B. It is filed as biochemical. In outline:
(§1)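 Enzyme was added to compound and [^3H]cAMP, then incubated 30 min at 30° (PDE4B 80 ng/ml; PDE4D 4 ng/ml). Product [^3H]AMP bound to SPA beads and was counted. IC50 was fitted by non-linear regression against DMSO and roflumilast controls.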
A general note: SPA uses beads or plates that emit light when radiolabelled molecules are held near them.

A further assay deals with T2, PDE4D (Homo sapiens, UniProt Q08499).
T2 construct: PDE4D: The catalytic domain of human PDE4B from S3 16-V692; His6 (N); thrombin cleavage site (N); made in house; host or cells: E. coli
The assay is described as follows: PDE4 IC50 determination by Scintillation Proximity Assay, PDE4D. It is filed as biochemical. In outline: as §1

The target in assay [2] is T3, full-length human PDE4B2 isozyme (Homo sapiens, UniProt Q07343).
T3 construct: The full-length human PDE4B2 isozyme; His6 (N); TEV cleavage site (N); made in house; host or cells: baculovirus infected insect cells (unpurified lysate)
The assay is described as follows: PDE4 IC50 determination by Scintillation Proximity Assay, PDE4B2. It is filed as biochemical. In outline:
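Unpurified His6-TEV-tagged full-length human PDE4B2 from baculovirus-infected insect cell lysate (2.5 μl of 50% glycerol stock/ml) hydrolysed [3H]cAMP in 50 mM Tris pH 7.5, 8.3 mM MgCl, 1.7 mM EGTA, 0.01% BSA for 30 min at 30°. Stopped with SPA beads in 18 mM ZnSO4; [3H]AMP scintillation counted, IC50 by non-linear regression.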

In assay [3] the target is T4, full-length human PDE4D5 isozyme (Homo sapiens, UniProt Q08499).
T4 construct: The full-length human PDE4D5 isozyme; His6 (N); TEV cleavage site (N); made in house; host or cells: baculovirus infected insect cells (unpurified lysate)
The assay is described as follows: PDE4 IC50 determination by Scintillation Proximity Assay, PDE4D5. It is filed as biochemical. In outline:
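Unpurified His6-tagged full-length human PDE4D5 from baculovirus-infected insect cell lysate, 0.083 μl glycerol stock/ml, hydrolysed [3H]cAMP in Tris pH 7.5/MgCl/EGTA buffer, 30 min at 30°. ZnSO4/SPA beads stop; [3H]AMP counted. Controls: DMSO and roflumilast; 11-point duplicate curves, nonlinear-regression IC50.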

The test system of assay [4] is TNFα levels in serum of LPS-challenged rats. The assay is described as follows: Rat inhibition studies: serum TNFα after iv LPS challenge. To be noted: read-out: % inhibition r TNFα. It is filed as in vivo. How it is done:
All studies were done with male rats CD (SD) IGS BR (Crl) (Charles River, France), which were grouped in to 5 animal groups.
At the end of the acclimatization period, the non-fasted rats were weighed, individually identified on the tail with a permanent marker and administered by oral (po) or interperitoneal (ip) route with either vehicle, reference or test compound in a volume of 10 mL/kg adapted to the body weight. The animals were gathered in groups of 5 animals in a polystyrene labeled cage with sawdust covered floors. 2-hours after vehicle, reference or test substance administration, rats received an intravenous (iv) injection of 0.1 mg/kg LPS in a volume of 1 mL/kg of body weight. 2 h after LPS challenge (or as indicated in Tables 3B and 4B), blood samples were collected into tubes without anticoagulant by retro-orbital puncture under gas (isoflurane) anesthesia. Samples were allowed to clot at room temperature for 5 to 10 min then put on ice until there were prepared by centrifugation (6000×g for 3 min at 4° C.) and stored at −20° C. until use. TNFα levels were measured in serum samples in duplicate by ELISA technique according to the manufacturer's procedure (Rat TNFα kit Quantikine M (RTA00, R&D System, France)). Data are reported as percent decrease in observed TNFα levels versus TNFa levels observed for vehicle dosed animal groups.

[5] abbreviates: Table 1B, Formula I compounds, read-out: IC50 PDE4B.
Where [6] appears, read: Table 1B, Formula I compounds, read-out: IC50 PDE4D.
Setting [7] is: Table 1B, Formula I compounds, read-out: IC50 PDE4B2.
Where [8] appears, read: Table 1B, Formula I compounds, read-out: IC50 PDE4D5.
[9] abbreviates: po, 2 h, rat in vivo inhibition assay, 100 mg/kg po, 2 hr challenge delay.

T4 sequence (Q08499 1-745 isoform Q08499-6): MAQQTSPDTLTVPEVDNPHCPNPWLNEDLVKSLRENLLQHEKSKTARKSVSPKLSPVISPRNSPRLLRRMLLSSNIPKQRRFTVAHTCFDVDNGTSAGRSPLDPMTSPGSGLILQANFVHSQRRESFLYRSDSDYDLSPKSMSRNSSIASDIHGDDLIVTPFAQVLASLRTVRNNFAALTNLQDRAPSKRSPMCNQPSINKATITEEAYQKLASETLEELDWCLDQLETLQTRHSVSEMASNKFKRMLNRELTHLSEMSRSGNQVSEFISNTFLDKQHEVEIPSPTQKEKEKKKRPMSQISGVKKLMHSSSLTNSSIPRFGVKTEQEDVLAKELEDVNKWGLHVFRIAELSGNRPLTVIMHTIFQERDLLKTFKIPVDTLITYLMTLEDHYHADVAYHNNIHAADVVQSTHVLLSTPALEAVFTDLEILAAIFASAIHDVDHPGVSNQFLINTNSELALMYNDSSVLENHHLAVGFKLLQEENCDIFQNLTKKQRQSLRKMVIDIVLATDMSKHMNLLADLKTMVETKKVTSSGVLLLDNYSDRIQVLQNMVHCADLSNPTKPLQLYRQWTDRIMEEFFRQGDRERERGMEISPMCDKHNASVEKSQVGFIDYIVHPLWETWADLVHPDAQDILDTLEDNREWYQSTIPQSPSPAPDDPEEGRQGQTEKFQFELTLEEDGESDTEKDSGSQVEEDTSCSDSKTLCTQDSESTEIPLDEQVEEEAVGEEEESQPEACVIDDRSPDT
T2 sequence (Q08499 380-756): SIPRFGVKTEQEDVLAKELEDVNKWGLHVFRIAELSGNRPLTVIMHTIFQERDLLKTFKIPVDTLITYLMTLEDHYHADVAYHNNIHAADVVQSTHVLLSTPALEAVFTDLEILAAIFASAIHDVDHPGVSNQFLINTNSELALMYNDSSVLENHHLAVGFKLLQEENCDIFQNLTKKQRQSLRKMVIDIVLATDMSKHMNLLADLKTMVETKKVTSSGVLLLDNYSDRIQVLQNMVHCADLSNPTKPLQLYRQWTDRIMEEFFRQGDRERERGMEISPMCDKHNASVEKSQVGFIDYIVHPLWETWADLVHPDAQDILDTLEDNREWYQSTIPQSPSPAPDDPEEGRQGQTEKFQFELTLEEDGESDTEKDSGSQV
T1 sequence (Q07343 with tags, fused parts or gaps): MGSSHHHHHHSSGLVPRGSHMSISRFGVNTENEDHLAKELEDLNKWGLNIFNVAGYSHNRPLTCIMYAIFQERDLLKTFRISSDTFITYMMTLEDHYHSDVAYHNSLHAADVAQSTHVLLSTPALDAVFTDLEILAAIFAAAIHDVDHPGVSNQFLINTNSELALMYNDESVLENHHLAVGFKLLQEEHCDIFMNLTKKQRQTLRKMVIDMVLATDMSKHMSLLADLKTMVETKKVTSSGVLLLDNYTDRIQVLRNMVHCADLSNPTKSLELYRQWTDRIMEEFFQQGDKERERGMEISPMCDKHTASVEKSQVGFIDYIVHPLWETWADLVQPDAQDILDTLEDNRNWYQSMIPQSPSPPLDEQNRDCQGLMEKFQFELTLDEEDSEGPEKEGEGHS
T3 sequence (Q07343 1-564 isoform Q07343-2): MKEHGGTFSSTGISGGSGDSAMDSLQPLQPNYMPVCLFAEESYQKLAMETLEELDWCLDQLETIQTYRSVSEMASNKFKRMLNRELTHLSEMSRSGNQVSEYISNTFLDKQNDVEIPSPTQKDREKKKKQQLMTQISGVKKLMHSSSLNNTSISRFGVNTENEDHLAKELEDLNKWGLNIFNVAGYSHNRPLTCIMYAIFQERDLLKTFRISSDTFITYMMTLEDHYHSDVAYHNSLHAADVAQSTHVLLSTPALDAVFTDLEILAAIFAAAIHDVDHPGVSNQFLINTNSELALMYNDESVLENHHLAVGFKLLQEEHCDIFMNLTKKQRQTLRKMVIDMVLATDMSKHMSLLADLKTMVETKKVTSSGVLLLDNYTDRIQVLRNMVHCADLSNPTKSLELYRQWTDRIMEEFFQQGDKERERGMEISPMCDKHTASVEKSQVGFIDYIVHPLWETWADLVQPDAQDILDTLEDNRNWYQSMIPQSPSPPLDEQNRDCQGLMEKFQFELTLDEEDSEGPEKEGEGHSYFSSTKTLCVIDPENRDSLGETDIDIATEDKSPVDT

Consider `COc1cccc(C(=O)c2sc(Nc3ccccc3)c(C#N)c2N)c1` [Compound 1-33, 4-Amino-5-(3-methoxy-benzoyl)-2-phenylamino-thiophene-3-carbonitrile], for which the IC50 (in assay [1] (setting [5]); on PDE4D (setting [6]); in assay [2] (setting [7]); in assay [3] (setting [8])) was less than 10 µM in each case. Also, the inhibition in vivo at 100 mg/kg in assay [4] (setting [9]) is greater than 20%.
For the compound `N#Cc1c(Nc2ccccc2)sc(C(=O)c2ccc(-c3ccccc3)cc2)c1N` [Compound 1-34, 4-Amino-5-(biphenyl-4-carbonyl)-2-phenylamino-thiophene-3-carbontrile], the IC50 (in assay [1] (setting [5]); on PDE4D (setting [6]); in assay [2] (setting [7]); in assay [3] (setting [8])) was less than 10 µM in each case. Moreover, the inhibition in vivo at 100 mg/kg in assay [4] (setting [9]) is greater than 20%.
Turning to `COc1ccc(C(=O)c2sc(Nc3ccc(F)cc3)c(C#N)c2N)cc1` [Compound 1-37, 4-Amino-2-(4-fluoro-phenylamino)-5-(4-methoxy-benzoyl)-thiophene-3-carbonitrile], the IC50 (in assay [1] (setting [5]); at PDE4D (setting [6]); in assay [2] (setting [7]); in assay [3] (setting [8])) was less than 10 µM each time. Besides, in assay [4] (po, 1 h, rat, 100 mg/kg po, 1 hr challenge delay), the inhibition in vivo at 100 mg/kg was less than 20%.
Consider `N#Cc1c(NC2CC2)sc(C(=O)c2cc(-c3ccccc3)no2)c1N` [Compound 1-186, 4-Amino-2-cyclopropylamino-5-(3-phenyl-isoxazole-5-carbonyl)-thiophene-3-carbonitrile], for which the IC50 in assay [1] (setting [5]) is less than 10 µM; at PDE4D (setting [6]), greater than 10 µM; in assay [2] (setting [7]), less than 10 µM; in assay [3] (setting [8]) it was less than 10 µM. The inhibition in vivo at 100 mg/kg in assay [4] (setting [9]) was less than 20%.
Regarding `Cc1ccc(C(=O)c2sc(Nc3ccccc3)c(C#N)c2N)cc1` [Compound 1-29, 4-Amino-5-(4-methyl-benzoyl)-2-phenylamino-thiophene-3-carbonitrile], the IC50 (in assay [1] (setting [5]); on PDE4D (setting [6]); in assay [2] (setting [7]); in assay [3] (setting [8])) was less than 10 µM each time. Moreover, in assay [4] (ip, 1 h, rat, 100 mg/kg, ip, 1 hr challenge delay), the inhibition in vivo at 100 mg/kg was greater than 20%.
On to `CSc1cccc(Nc2sc(C(=O)c3cc(-c4ccccc4)no3)c(N)c2C#N)c1` [Compound 1-181, 4-Amino-2-(3-methylsulfanyl-phenylamino)-5-(3-phenyl-isoxazole-5-carbonyl)-thiophene-3-carbonitrile], for which the IC50 (in assay [1] (setting [5]); at PDE4D (setting [6]); in assay [2] (setting [7]); in assay [3] (setting [8])) was less than 10 µM throughout. Besides, the inhibition in vivo at 100 mg/kg in assay [4] (setting [9]) was less than 20%.
Consider `Nc1nc(NC2CCCC2)sc1C(=O)c1cc(-c2ccccc2)no1` [Compound 2-9, (4-Amino-2-cyclopentylamino-thiazol-5-yl)-(3-phenyl-isoxazol-5-yl)-methanone], for which the IC50 in assay [1] (first part of Table 2B (2-1 to 2-22), read-out: IC 50 vs. indicated assay PDE4B) is less than 10 µM; on PDE4D (first part of Table 2B (2-1 to 2-22), read-out: IC 50 vs. indicated assay PDE4D), less than 10 µM; in assay [2] (first part of Table 2B (2-1 to 2-22), read-out: IC 50 vs. indicated assay PDE4B2), less than 10 µM; in assay [3] (first part of Table 2B (2-1 to 2-22), read-out: IC 50 vs. indicated assay PDE4D5), less than 10 µM. The inhibition in vivo at 100 mg/kg in assay [4] (po, 2 h, rat in vivo, 100 mg/kg po, 2 hr challenge delay, percent decrease in TNFα versus vehicle) was greater than 20%.
`N#Cc1c(Nc2ccc(Oc3ccccc3)cc2)sc(C(=O)c2ccccc2Cl)c1N` [Compound 1-161, 4-Amino-5-(2-chloro-benzoyl)-2-(4-phenoxy-phenylamino)-thiophene-3-carbonitrile]: the IC50 is less than 10 µM in assay [1] (setting [5]), greater than 10 µM at PDE4D (setting [6]), less than 10 µM in assay [2] (setting [7]) and less than 10 µM in assay [3] (setting [8]). Also, the inhibition in vivo at 90 mg in assay [4] (2 h, rat, ip, 2 hr challenge delay) was greater than 20%; in assay [4] (2 h, rat, po, 2 hr challenge delay), less than 20%.
`COc1ccc(Nc2sc(C(=O)c3ccccc3)c(N)c2C#N)cc1` [Compound 1-32, 4-Amino-5-benzoyl-2-(4-methoxy-phenylamino)-thiophene-3-carbonitrile]: the IC50 (in assay [1] (setting [5]); at PDE4D (setting [6]); in assay [2] (setting [7]); in assay [3] (setting [8])) was less than 10 µM in each case. Further, the inhibition in vivo at 100 mg/kg in assay [4] (setting [9]) was less than 20%.
Regarding `N#Cc1c(Nc2ccccc2)sc(C(=O)c2ccc3ccccc3c2)c1N` [Compound 1-35, 4-Amino-5-(naphthalene-2-carbonyl)-2-phenylamino-thiophene-3-carbonitrile], the IC50 (in assay [1] (setting [5]); at PDE4D (setting [6]); in assay [2] (setting [7]); in assay [3] (setting [8])) was less than 10 µM in each case. Moreover, in assay [4] (setting [9]), the inhibition in vivo at 100 mg/kg is less than 20%.
On to `N#Cc1c(NCc2ccccc2)sc(C(=O)c2cc(-c3ccccc3)no2)c1N` [Compound 1-193, 4-Amino-2-benzylamino-5-(3-phenyl-isoxazole-5-carbonyl)-thiophene-3-carbonitrile], for which the IC50 in assay [1] (setting [5]) is less than 10 µM; in assay [2] (setting [7]), greater than 10 µM; in assay [3] (setting [8]), greater than 10 µM. Besides, the inhibition in vivo at 100 mg/kg in assay [4] (setting [9]) is less than 20%.
Regarding `N#Cc1c(NC2CCCC2)sc(C(=O)c2ccccc2)c1N` [Compound 1-171, 4-Amino-5-benzoyl-2-cyclopentylamino-thiophene-3-carbonitrile], the IC50 (in assay [1] (setting [5]); on PDE4D (setting [6]); in assay [2] (setting [7]); in assay [3] (setting [8])) was less than 10 µM throughout. For the same compound, the inhibition in vivo at 100 mg/kg in assay [4] (setting [9]) is less than 20%.
For `COc1ccccc1Nc1sc(C(=O)c2ccccc2)c(N)c1C#N` [Compound 1-30, 4-Amino-5-benzoyl-2-(2-methoxy-phenylamino)-thiophene-3-carbonitrile], the IC50 (in assay [1] (setting [5]); on PDE4D (setting [6]); in assay [2] (setting [7]); in assay [3] (setting [8])) was less than 10 µM throughout. Also, in assay [4] (setting [9]), the inhibition in vivo at 100 mg/kg is greater than 20%.
On to `CSc1cccc(Nc2sc(C(=O)c3ccccc3)c(N)c2C#N)c1` [Compound 1-169, 4-Amino-5-benzoyl-2-(3-methylsulfanyl-phenylamino)-thiophene-3-carbonitrile], for which the IC50 (in assay [1] (setting [5]); on PDE4D (setting [6]); in assay [2] (setting [7]); in assay [3] (setting [8])) was less than 10 µM each time. Also, the inhibition in vivo at 70 mg in assay [4] (2 h, rat, 70 mg, po, 2 hr challenge delay) was greater than 20%.
Turning to `N#Cc1c(NC2CCCC2)sc(C(=O)c2cc(-c3ccc(Cl)cc3)no2)c1N` [Compound 1-173, 4-Amino-5-[3-(4-chloro-phenyl)-isoxazole-5-carbonyl]-2-cyclopentylamino-thiophene-3-carbonitrile], the IC50 is less than 10 µM in assay [1] (setting [5]), greater than 10 µM on PDE4D (setting [6]), less than 10 µM in assay [2] (setting [7]) and greater than 10 µM in assay [3] (setting [8]). Moreover, the inhibition in vivo at 100 mg/kg in assay [4] (setting [9]) was less than 20%.
On to `N#Cc1c(Nc2ccc(OC(F)F)cc2)sc(C(=O)c2ccccc2)c1N` [Compound 1-166, 4-Amino-5-benzoyl-2-(4-difluoromethoxy-phenylamino)-thiophene-3-carbonitrile], for which the IC50 (in assay [1] (setting [5]); at PDE4D (setting [6])) was less than 10 µM each time. Moreover, the inhibition in vivo at 100 mg/kg in assay [4] (setting [9]) was less than 20%.
For the compound `CSc1ccc(Nc2sc(C(=O)c3ccccc3)c(N)c2C#N)cc1` [Compound 1-167, 4-Amino-5-benzoyl-2-(4-methylsulfanyl-phenylamino)-thiophene-3-carbonitrile], the IC50 (in assay [1] (setting [5]); on PDE4D (setting [6])) was less than 10 µM each time. For the same compound, the inhibition in vivo at 100 mg/kg in assay [4] (setting [9]) was less than 20%.
